# Read-outs that look alike come from different tables or passages of the source.
# Columns and labels:
# [1] = Phase I study plasma pharmacokinetics; format: in vivo, human; conditions: human, plasma; for AUC(0-t) / Cmax / AUC / Vd/F / AUC(0-inf): mean; for AUC: read-out: AUC24; for Vd/F: read-out: Vz/F; for half-life: read-out: median t1/2 at steady state
# Source text: The PK parameters of belvarafenib were estimated in 48 patients in the dose-escalation phase and 35 patients in the dose-expansion phase. In the tables: “AUClast” refers to the area under the plasma concentration-time curve from zero time until the last measurable concentration; “AUC0-∞” refers to area under the plasma concentration-time curve from zero time to infinity; “AUC24” refers to the area under the curve from T0 to T24; “Cmax” refers to the maximal concentration; “Tmax” refers to the time to reach Cmax; “T1/2β” refers to the terminal elimination half-life; “QD” refers to once a day; and “BID” refers to twice a day. […] Mean and coefficient of variation are presented except for Tmax where median and range are presented. One patient in the 200 QD dosing regimen who took concomitant rifampin was removed from the analysis because the AUC and Cmax of the patient were much lower than those of the others in the same cohort, which, without being bound to any particular theory, could have resulted from the drug-metabolizing enzyme induction by rifampin through which belvarafenib is biotransformed.
# [2] = tested on: MEK and ERK phosphorylation in SK-MEL-28 (BRAF^V600E) cells; experiment: Inhibition of MEK and ERK phosphorylation; format: cell-based; conditions: Homo sapiens
# [3] = oral, 600 mg/day, Multiple administrations Day 22, 600 mg/day QD, n=6
# [4] = oral, 900 mg/day, Multiple administrations Day 22, 900 mg/day BID, n=7
# [5] = oral, 1300 mg/day, Multiple administrations Day 22, 1300 mg/day BID, n=6
# [6] = oral, 1600 mg/day, Multiple administrations Day 22, 1600 mg/day BID, n=4
# [7] = po, 50 mg/day QD, Day 1 first dose, 50 mg/day QD, n=3
# [8] = po, 100 mg/day QD, Day 1 first dose, 100 mg/day QD, n=3
# [9] = po, 200 mg, Day 1 first dose, 200 mg/day QD, n=6
# [10] = po, 200 mg/day QD, Day 1 first dose, 200 mg/day QD, n=7
# [11] = po, 400 mg/day BID, Day 1 first dose, 400 mg/day BID, n=11
# [12] = po, 600 mg/day BID, Day 1 first dose, 600 mg/day BID, n=7
# [13] = po, 600 mg/day, Day 1 first dose, 600 mg/day BID, n=7
# [14] = po, 600 mg/day, Day 1 first dose, 600 mg/day QD, n=6
# [15] = po, 900 mg/day, Day 1 first dose, 900 mg/day BID, n=8
# [16] = po, 1300 mg/day, Day 1 first dose, 1300 mg/day BID, n=6
# [17] = po, 1600 mg/day, Day 1 first dose, 1600 mg/day BID, n=6
compound,measurement,setting,value
Cc1ccc2c(Nc3cccc(Cl)c3F)nccc2c1NC(=O)c1csc2c(N)ncnc12 [Belvarafenib],AUC(0-t),[1]; [3],57600 ng·h/mL
same,Cmax,[1]; [3],3130 ng/mL
same,AUC,[1]; [3],58000 ng·h/mL
same,Vd/F,[1]; [3],241 L
same,Tmax,"[1]; oral, 600 mg/day, Multiple administrations Day 22, 600 mg/day QD, n=6, median, read-out: Tmax",4.1 h
same,AUC(0-inf),[1]; [4],322000 ng·h/mL
same,AUC(0-t),[1]; [4],126000 ng·h/mL
same,Cmax,[1]; [4],6090 ng/mL
same,AUC,[1]; [4],127000 ng·h/mL
same,Vd/F,[1]; [4],148 L
same,Tmax,"[1]; oral, 900 mg/day, Multiple administrations Day 22, 900 mg/day BID, n=7, median, read-out: Tmax",2.9 h
same,AUC(0-inf),[1]; [5],625000 ng·h/mL
same,AUC(0-t),[1]; [5],158000 ng·h/mL
same,Cmax,[1]; [5],7320 ng/mL
same,AUC,[1]; [5],159000 ng·h/mL
same,Vd/F,[1]; [5],195 L
same,Tmax,"[1]; oral, 1300 mg/day, Multiple administrations Day 22, 1300 mg/day BID, n=6, median, read-out: Tmax",2 h
same,AUC(0-inf),[1]; [6],139000 ng·h/mL
same,AUC(0-t),[1]; [6],49200 ng·h/mL
same,Cmax,[1]; [6],2360 ng/mL
same,AUC,[1]; [6],49600 ng·h/mL
same,Vd/F,[1]; [6],871 L
same,Tmax,"[1]; oral, 1600 mg/day, Multiple administrations Day 22, 1600 mg/day BID, n=4, median, read-out: Tmax",5.5 h
same,Tmax,"[1]; oral, BID regimens, read-out: Single-dose median Tmax",15.5 to 24 h
same,half-life,"[1]; oral, BID regimens",32.3 to 66.4 h
same,Tmax,"[1]; oral, QD regimens, read-out: Single-dose median Tmax",3 to 4.5 h
same,half-life,"[1]; oral, QD regimens",65.1 to 106 h
same,AUC(0-inf),[1]; [7],27000 ng·h/mL
same,Cmax,[1]; [7],553 ng/mL
same,Vd/F,[1]; [7],186 L
same,Tmax,"[1]; po, 50 mg/day QD, Day 1 first dose, 50 mg/day QD, n=3, median, read-out: Tmax",3 h
same,AUC(0-t),"[1]; po, 50 mg/day, Day 1 first dose, 50 mg/day QD, n=3",13000 ng·h/mL
same,AUC(0-inf),[1]; [8],51500 ng·h/mL
same,Cmax,[1]; [8],807 ng/mL
same,Vd/F,[1]; [8],215 L
same,Tmax,"[1]; po, 100 mg/day QD, Day 1 first dose, 100 mg/day QD, n=3, median, read-out: Tmax",3 h
same,AUC(0-t),"[1]; po, 100 mg/day, Day 1 first dose, 100 mg/day QD, n=3",45000 ng·h/mL
same,AUC(0-inf),[1]; [9],37800 ng·h/mL
same,AUC(0-t),[1]; [9],28800 ng·h/mL
same,Cmax,[1]; [9],602 ng/mL
same,Vd/F,[1]; [9],529 L
same,Tmax,"[1]; po, 200 mg, Day 1 first dose, 200 mg/day QD, n=6, median, read-out: Tmax",4.4 h
same,AUC(0-inf),[1]; [10],32800 ng·h/mL
same,Cmax,[1]; [10],549 ng/mL
same,Vd/F,[1]; [10],550 L
same,Tmax,"[1]; po, 200 mg/day QD, Day 1 first dose, 200 mg/day QD, n=7, median, read-out: Tmax",4.1 h
same,AUC(0-t),"[1]; po, 200 mg/day, Day 1 first dose, 200 mg/day QD, n=7",25100 ng·h/mL
same,AUC(0-inf),[1]; [11],78300 ng·h/mL
same,Cmax,[1]; [11],900 ng/mL
same,Vd/F,[1]; [11],758 L
same,Tmax,"[1]; po, 400 mg/day BID, Day 1 first dose, 400 mg/day BID, n=11, median, read-out: Tmax",6.9 h
same,AUC(0-t),"[1]; po, 400 mg/day, Day 1 first dose, 400 mg/day BID, n=11",62300 ng·h/mL
same,AUC(0-inf),[1]; [12],169000 ng·h/mL
same,AUC(0-t),[1]; [12],121000 ng·h/mL
same,AUC(0-t),"[1]; po, 600 mg/day QD, Day 1 first dose, 600 mg/day QD, n=6",71100 ng·h/mL
same,Cmax,[1]; [13],1210 ng/mL
same,Vd/F,[1]; [13],884 L
same,Tmax,"[1]; po, 600 mg/day, Day 1 first dose, 600 mg/day BID, n=7, median, read-out: Tmax",24 h
same,AUC(0-inf),[1]; [14],84700 ng·h/mL
same,Cmax,[1]; [14],1320 ng/mL
same,Vd/F,[1]; [14],798 L
same,Tmax,"[1]; po, 600 mg/day, Day 1 first dose, 600 mg/day QD, n=6, median, read-out: Tmax",4.5 h
same,AUC(0-inf),[1]; [15],177000 ng·h/mL
same,Cmax,[1]; [15],1590 ng/mL
same,Vd/F,[1]; [15],534 L
same,Tmax,"[1]; po, 900 mg/day, Day 1 first dose, 900 mg/day BID, n=8, median, read-out: Tmax",17 h
same,AUC(0-t),"[1]; po, 1300 mg/day BID, Day 1 first dose, 1300 mg/day BID, n=6",156000 ng·h/mL
same,AUC(0-inf),[1]; [16],225000 ng·h/mL
same,Cmax,[1]; [16],1790 ng/mL
same,Vd/F,[1]; [16],708 L
same,Tmax,"[1]; po, 1300 mg/day, Day 1 first dose, 1300 mg/day BID, n=6, median, read-out: Tmax",15.5 h
same,AUC(0-t),"[1]; po, 1600 mg/day BID, Day 1 first dose, 1600 mg/day BID, n=6",134000 ng·h/mL
same,AUC(0-inf),[1]; [17],336000 ng·h/mL
same,Cmax,[1]; [17],1440 ng/mL
same,Vd/F,[1]; [17],1700 L
same,Tmax,"[1]; po, 1600 mg/day, Day 1 first dose, 1600 mg/day BID, n=6, median, read-out: Tmax",20.4 h
same,IC50,[2]; read-out: IC50 pERK,155 nM
same,IC50,[2]; read-out: IC50 pMEK,35 nM

# Source: patent US20230233567A1, “BELVARAFENIB FOR USE IN CANCER TREATMENT” (Hanmi Pharm. Co., Ltd., priority 2020, published 2023)
